Data taken from patent US20180071248A1, “COMPOSITION FOR IMPROVING CIRCADIAN RHYTHM” (SUNTORY HOLDINGS LIMITED, priority 2015, published 2018).

Tests used:
[1] = tested on: Per 2 gene expression rhythm; experiment: Per 2 gene expression rhythm in Per2::LUC knock-in mouse-derived embryonic fibroblast line (luciferase chemiluminescence, LumiCycle); type: cell-based; conditions: Per2::LUC mouse embryonic fibroblasts; each substance at 10 μM; FIG. 4
Procedure: The cell line used was Per2::LUC knock-in mouse-derived embryonic fibroblast line. Per2::LUC knock-in mouse is a mouse in which the luciferase gene serving as a reporter is introduced downstream of the promoter region of the clock gene Per 2. Therefore, a Per 2::LUC knock-in mouse-derived embryonic fibroblast line expresses the luciferase gene along with periodic expression of the clock gene. When Per 2::LUC knock-in mouse-derived embryonic fibroblasts are cultured in a culture medium containing luciferin, a luciferase substrate, the cells produce chemiluminescence periodically; thus, by monitoring the chemiluminescence, the expression rhythm of the clock gene Per 2 can be evaluated.
At first, about 5×10^5 cells of the Per2::LUC knock-in mouse-derived embryonic fibroblast line were seeded onto 35 mm culture dishes, and then treated with 200 nM dexamethasone for 2 hours to thereby reset (tune) the biorhythm of the cells. […] While the cell culture was continued, the chemiluminescence of the reporter gene was measured real-time with a luminometer (LumiCycle; produced by Actimetrics) for one minute at a frequency of every 10 minutes, and the measurement was continued for 5 days. Amplitude and period length were calculated from the obtained waveform to evaluate the effect of the test substance, a 1:1 mixture of sesamin/episesamin. […]

circadian rhythm = conditions: disclosed in NPLs 4 and 5; cited from earlier work

Structure (SMILES)	amplitude of Per 2 gene expression [1]	circadian rhythm amplitude (circadian rhythm)	circadian rhythm period (circadian rhythm)
c1cc2c(cc1[C@H]1OC[C@H]3[C@@H]1CO[C@@H]3c1ccc3c(c1)OCO3)OCO2 [sesamin]	capable of increasing the amplitude		
Cn1c(=O)c2c(ncn2C)n(C)c1=O [caffeine]		amplify circadian rhythm amplitude	lengthen circadian rhythm period
Oc1cc2c(cc1[C@H]1OC[C@H]3[C@@H]1CO[C@@H]3c1ccc3c(c1)OCO3)OCO2 [sesaminol]	capable of increasing the amplitude		
